Data published in the supplement of paper PMC10307832.

Experiments:
[1] = compound: CC(C)C[C@@H](C(=O)N[C@H](C(=O)OC1CCCC1)c1ccccc1)[C@H](O)C(=O)NO [Tosedostat] + CC(=O)Nc1cccc(-n2c(=O)n(C3CC3)c(=O)c3c(Nc4ccc(I)cc4F)n(C)c(=O)c(C)c32)c1 [Trametinib] (partner 0.02 µM); assay: relative viability (nuclei count vs DMSO), 5 days (fraction); higher = more cells survive
Outline: (§1)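 Medians of duplicate plates are given as relative viability. That measure is the nuclei count in treated wells divided by the count in vehicle wells. Counts were taken on 4× images of lung cancer cell lines in 1536-well plates, 5 days after pin-tool dosing the day after seeding with one drug alone or a fixed anchor-drug dose plus five library-drug doses (not always all listed) in √10 steps.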

[2] = compound: CC1=NN=C(O1)C2=NN=C(C=C2)N3CCC(CC3)OC4=C(C=CC(=C4)F)Cl + Cc1nc(Nc2ncc(C(=O)Nc3c(C)cccc3Cl)s2)cc(N2CCN(CCO)CC2)n1 [Dasatinib] (partner 0.075 µM); assay: as above
Outline: as §1

| Cell Line | relative viability ([1]; first compound 0.02 µM) | relative viability ([1]; first compound 0.06325 µM) | relative viability ([1]; first compound 0.2 µM) | relative viability ([1]; first compound 0.6325 µM) | relative viability ([1]; first compound 2 µM) | relative viability ([2]; first compound 0.253 µM) | relative viability ([2]; first compound 0.8 µM) | relative viability ([2]; first compound 2.53 µM) | relative viability ([2]; first compound 8 µM) |
| --- | --- | --- | --- | --- | --- | --- | --- | --- | --- |
| HCC-366 | 0.36 | 0.358 | 0.322 | 0.311 | 0.374 | 0.292 | 0.375 | 0.471 | 0.361 |
| EMC-BAC-2 | 0.942 | 0.849 | 0.83 | 0.727 | 0.675 | 0.319 | 0.324 | 0.362 | 0.422 |
| NCI-H460 | 0.157 | 0.197 | 0.204 | 0.181 | 0.217 | 0.175 | 0.185 | 0.214 | 0.193 |
| NCI-H358 | 0.144 | 0.126 | 0.13 | 0.113 | 0.133 | 0.199 | 0.196 | 0.19 | 0.188 |
| NCI-H1944 | 0.422 | 0.396 | 0.4 | 0.395 | 0.422 | 0.212 | 0.23 | 0.224 | 0.264 |
| NCI-H2342 | 0.808 | 0.797 | 0.93 | 0.903 | 0.919 | 0.286 | 0.293 | 0.325 | 0.274 |
| EPLC-272H | 0.29 | 0.296 | 0.305 | 0.324 | 0.25 | 0.35 | 0.277 | 0.404 | 0.302 |
| NCI-H2023 | 0.607 | 0.496 | 0.465 | 0.45 | 0.502 | 0.429 | 0.442 | 0.476 | 0.402 |
| NCI-H838 | 0.559 | 0.446 | 0.52 | 0.596 | 0.59 | 0.299 | 0.32 | 0.301 | 0.331 |
| NCI-H647 | 0.452 | 0.485 | 0.425 | 0.622 | 0.515 | 0.196 | 0.222 | 0.207 | 0.178 |
| NCI-H1437 | 0.552 | 0.523 | 0.631 | 0.469 | 0.547 | 0.584 | 0.279 | 0.418 | 0.268 |
| NCI-H3122 | 0.201 | 0.258 | 0.193 | 0.25 | 0.183 | 0.283 | 0.313 | 0.28 | 0.23 |
| NCI-H522 | 0.716 | 0.796 | 0.752 | 0.895 | 0.78 | 0.856 | 0.842 | 0.974 | 0.938 |
| PC-14 | 0.856 | 0.758 | 0.781 | 0.67 | 0.531 | 0.264 | 0.242 | 0.283 | 0.231 |
| SK-MES-1 | 0.556 | 0.536 | 0.625 | 0.776 | 0.782 | 0.359 | 0.384 | 0.419 | 0.42 |
| NCI-H2170 | 0.945 | 0.971 | 0.925 | 0.894 | 0.915 | 0.351 | 0.332 | 0.374 | 0.316 |
| NCI-H23 | 0.426 | 0.329 | 0.359 | 0.321 | 0.284 | 0.622 | – | 0.79 | 0.71 |
| NCI-H596 | 0.842 | 0.848 | 0.861 | 0.901 | 0.803 | 0.558 | 0.602 | 0.647 | 0.506 |

| Cell Line | relative viability ([1]; first compound 0.02 µM) | relative viability ([1]; first compound 0.06325 µM) | relative viability ([1]; first compound 0.2 µM) | relative viability ([1]; first compound 0.6325 µM) | relative viability ([1]; first compound 2 µM) | relative viability ([2]; first compound 0.253 µM) | relative viability ([2]; first compound 0.8 µM) | relative viability ([2]; first compound 2.53 µM) | relative viability ([2]; first compound 8 µM) |
| --- | --- | --- | --- | --- | --- | --- | --- | --- | --- |
| SK-LU-1 | 0.648 | 0.529 | 0.597 | 0.447 | 0.511 | 0.166 | – | 0.0949 | 0.119 |
| NCI-H650 | 1.04 | 1.03 | 0.852 | 0.924 | 0.836 | 0.496 | 0.436 | 0.419 | 0.445 |
| LU99A | 0.51 | 0.47 | 0.567 | 0.544 | 0.47 | 0.517 | 0.674 | 0.728 | 0.509 |
| NCI-H520 | 0.731 | 0.733 | 0.645 | 0.699 | 0.67 | 0.258 | – | 0.211 | 0.222 |
| NCI-H661 | 0.688 | 0.596 | 0.579 | 0.613 | 0.637 | 0.785 | 0.608 | – | 0.68 |
| PC-3 [JPC-3] | 0.752 | 0.629 | 0.733 | 0.614 | 0.514 | 0.944 | 0.813 | 0.877 | 0.852 |
| RERF-LC-KJ | 0.878 | 0.784 | 0.81 | 0.782 | 0.686 | 0.553 | 0.559 | 0.619 | 0.581 |
| NCI-H1793 | 0.507 | 0.49 | 0.445 | 0.437 | 0.448 | 0.378 | 0.342 | 0.448 | 0.371 |
| NCI-H1915 | 0.295 | 0.313 | 0.292 | 0.3 | 0.283 | 0.324 | 0.257 | 0.311 | 0.285 |
| H3255 | 0.61 | 0.582 | 0.528 | 0.608 | 0.599 | 0.316 | 0.434 | 0.404 | 0.338 |
| 201T | 0.673 | 0.743 | 0.732 | 0.745 | 0.781 | 0.38 | 0.45 | 0.409 | 0.433 |
| NCI-H2405 | 0.652 | 0.657 | 0.79 | 0.699 | 0.614 | 0.199 | 0.207 | 0.179 | 0.181 |
| HOP-62 | 0.41 | 0.442 | 0.404 | 0.495 | 0.451 | 0.571 | 0.633 | 0.606 | 0.6 |
| CAL-12T | 0.393 | 0.364 | 0.339 | 0.394 | 0.325 | 0.315 | 0.34 | 0.374 | 0.228 |
| NCI-H727 | 0.398 | 0.37 | 0.413 | 0.412 | 0.376 | 0.328 | – | 0.441 | 0.384 |
| NCI-H1993 | 0.501 | 0.61 | 0.535 | 0.498 | 0.504 | 0.537 | 0.564 | 0.768 | 0.549 |
| NCI-H2228 | 0.666 | 0.57 | 0.466 | 0.534 | 0.421 | 0.555 | 0.412 | 0.537 | 0.405 |
| NCI-H2126 | 0.493 | 0.59 | 0.568 | 0.584 | 0.481 | 0.526 | 0.635 | 0.616 | 0.611 |
